The text below walks through data of patent US7279161B2, “Factor IX/factor IXa activating antibodies and antibody derivatives” (Baxter Aktiengesellschaft, priority 1999, dated 2007).

One assay has as its target T1, human FIXa (Homo sapiens, UniProt P00740).
T1 construct: with (+) and without (−) addition of 50 ng human FIXaβ; purchased ERL (Enzyme Research Laboratories)
Description: Chromogenic FVIII-like (FXa generation) assay with human FIXa added. The assay is classed as biochemical. To be noted: 2.9 nM human FIXa. On the procedure:
The chromogenic activity of these antibody preparations was measured in the following FXa generation kinetic assay: 10 μg of monoclonal antibody (in 25 μl) were transferred to microtiter plate wells and warmed to 37° C. Chromogenic substrate (S-2222), synthetic thrombin inhibitor (I-2581), factor IXa and FX were reconstituted in sterile water and FIXa/FX (both bovine) were mixed with phospholipids according to the supplier's protocol. Per reaction, 50 μl of the phospholipid/FIXa/FX solution were combined with 25 μl CaCl2 (25 mM) and 50 μl of the substrate/inhibitor cocktail. To start the reaction, 125 μl of the premix were added to the monoclonal antibody solution in the microtiter plates and incubated at 37° C. Absorbance at 405 nm and 490 nm of the samples was read at various times (5 min to 2 h) against a reagent blank ([…] TBS instead of monoclonal antibodies) in a Labsystems iEMS Reader MF™ microtiter plate reader using GENESIS™ software. In parallel, the same reactions were performed except that 50 ng human FIXa were added per reaction.
To analyze the FVIII-like (FIXa activating) activity of the peptides, an assay system based on a commercial available FVIII assay was developed (see examples 2 and 4). The basic principle is, that without a cofactor, FIXa will have very limited activity towards its natural substrate FX. […] The amount of FXa generated is monitored by cleavage of a chromogenic substrate. The principle of the revised chromogenic assay is described for two representative peptides: A1/3 and A1/5 (Table 2). Briefly, 25 μl aliquots of peptide stock solution (in imidazole buffer (IZ) 50 mM imidazole, 100 mM NaCl, pH 7.2) were transferred to microtiter plate wells and warmed to 37° C. Chromogenic FXa substrate (S-2222), synthetic thrombin inhibitor (I-2581), bovine FIXa and bovine FX were reconstituted in sterile water and FIXa/FX mixed with phospholipids according to the supplier's protocol. […] Per reaction, 50 μl of the phospholipid/FIXa/FX solution were combined with 25 μl CaCl2 (25 mM) and 50 μl of the substrate/inhibitor cocktail. To start the reaction, 125 μl of the premix were added to the peptide solution in the microtiter plate and incubated at 37° C. Absorbance at 405 nm and 490 nm of the samples was read at various times (5 min to 2 h) against a reagent blank in a Labsystems iEMS Reader MF™ microtiter plate reader using GENESIS™ software.

The subject of the next assay is FVIII deficient plasma. The assay is described as follows: aPTT based one stage clotting assay in FVIII deficient plasma. To be noted: for average clotting time / clotting time: Table 3A Exp. 1, DAPTTIN. The class given is biochemical, human. On the procedure:
During normal hemostasis, FIX becomes initially activated either by the tissue factor (TF)/factor VIIa pathway or later on by activated factor XI (FXIa). Subsequent to its activation, FIXa associates on the platelet surface in a membrane bound complex with activated FVIII. […] Different amounts of antibody 193/AD3 or mouse IgG (as a control) were used in a standard aPTT based one stage clotting assay. Briefly, 100 μl of antibody-containing samples were incubated with 100 μl of FVIII deficient plasma (DP) and with 100 μl of DAPTTIN (PTT Reagent for determining activated Thromboplastin Time; IMMUNO AG) reagent, in a KC10A clotting analyzer. Where indicated, a total amount of 50 ng activated FIX was included in the reaction mixture. After a 4 minute incubation, the reaction was started by the addition of 100 μl CaCl2 (25 mM).
The peptides were also analyzed for their potential to reduce the clotting time in a FVIII deficient plasma. The aPTT based one stage clotting assay was essentially done as described (see example 6). Clotting times (time from starting the reaction to the “clot”-formation were compared either against FVIII, a buffer control (IZ) or a control peptide (scrambled version). The results of two typical clotting experiments done with two different aPTT reagents (DAPTTIN and Pathromtin SL) are shown in table 3A and table 3B.

A further assay concerns the target T2, factor IXa (Bos taurus, UniProt P00741).
T2 construct: purchased Chromogenix COATEST VIII:C/4
Description: Chromogenic FVIII assay (COATEST VIII:C/4) with the kit's FIXa/FX. To be noted: bovine FIXa and FX only; A1/3 24 μM. The class given is biochemical, bovine. On the procedure: In order to assay the FVIII-like activity of anti-FIXa antibodies secreted by hybridoma cells, the commercially available test-kit COATEST VIII:C/4® (Chromogenix) was employed. The assay was done essentially as described by the manufacturer with the following modifications:
To allow high throughput screening, the assay was downscaled to microtiter plate format. Briefly, 25 μl aliquots of hybridoma supernatants were transferred to microtiter plate (Costar, #3598) wells and warmed to 37° C. Chromogenic substrate (S-2222), synthetic thrombin inhibitor (I-2581), factor (F) IXa and FX were reconstituted in sterile water and FIXa/FX was mixed with phospholipids according to the supplier's protocol. Per reaction, 50 μl of the phospholipid/FIXa/FX solution were combined with 25 μl CaCl2 (25 mM) and 50 μl of the substrate/inhibitor cocktail. To start the reaction, 125 μl of the premix were added to the hybridoma supernatant in the microtiter plates and incubated at 37° C. Absorbency at 405 nm and 490 nm of the samples was read at various times (30 min to 12 h) against a reagent blank (MLW, cell culture medium instead of hybridoma supernatant) in a Labsystems iEMS Reader MF™ microtiter plate reader. FVIII-like activity of the samples was calculated by comparing the absorbency of the samples against the absorbency of a diluted FVIII reference standard (IMMUNO AG #5T4AR00) using GENESIS™ software.
Several anti-FIX/FIXa antibody producing hybridoma clones were subcloned up to four times and the resulting monoclonal hybridoma cell line used to produce monoclonal antibody containing supernatant. IgG isotype antibodies derived from these supernatants were purified over affinity columns and dialyzed against TBS (see above). IgM antibodies were used as unpurified supernatant fractions. […] Absorbance at 405 nm and 490 nm of the samples was read at various times (5 min to 6 h) against a reagent blank (cell culture medium instead of hybridoma supernatant) in a Labsystems iEMS Reader MF™ microtiter plate reader using GENESIS™ software. […]

T2 sequence (P00741 47-192 limits assumed): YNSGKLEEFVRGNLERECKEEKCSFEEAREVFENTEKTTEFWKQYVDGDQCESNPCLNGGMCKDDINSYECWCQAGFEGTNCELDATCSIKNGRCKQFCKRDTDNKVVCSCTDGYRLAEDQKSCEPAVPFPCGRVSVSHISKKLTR
T2 sequence (P00741 228-462 limits assumed): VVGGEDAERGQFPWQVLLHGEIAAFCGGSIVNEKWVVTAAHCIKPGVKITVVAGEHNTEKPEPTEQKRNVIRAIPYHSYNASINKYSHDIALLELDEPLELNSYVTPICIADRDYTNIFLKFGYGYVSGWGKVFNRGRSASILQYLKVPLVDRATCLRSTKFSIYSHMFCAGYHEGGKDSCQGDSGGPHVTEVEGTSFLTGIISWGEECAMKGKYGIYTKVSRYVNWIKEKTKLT
T1 sequence (P00740 47-191 limits assumed): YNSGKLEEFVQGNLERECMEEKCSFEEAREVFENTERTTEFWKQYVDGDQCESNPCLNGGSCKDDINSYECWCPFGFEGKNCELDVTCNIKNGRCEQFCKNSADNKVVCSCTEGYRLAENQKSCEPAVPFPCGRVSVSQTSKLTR
T1 sequence (P00740 227-461 limits assumed): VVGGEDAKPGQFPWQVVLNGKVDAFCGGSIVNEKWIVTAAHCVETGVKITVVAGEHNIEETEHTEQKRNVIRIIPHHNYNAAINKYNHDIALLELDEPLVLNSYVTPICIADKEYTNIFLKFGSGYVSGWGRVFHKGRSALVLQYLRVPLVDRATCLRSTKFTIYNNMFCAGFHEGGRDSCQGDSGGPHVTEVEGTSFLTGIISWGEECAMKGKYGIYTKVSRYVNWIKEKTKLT

For RRRGEYGVYWNGDFYRRR [A1/3-scr3], the “chromogenic FVIII-like activity (FXa generation)” value at human FIXa is given as “did not give any significant chromogenic activity”. Besides, the average clotting time in the assay with FVIII deficient plasma (2.5 μM, 2.2 nM FIXa) is 96 s; with FVIII deficient plasma (2.5 μM, w/o FIXa), 108 s; with FVIII deficient plasma (7.5 μM, 2.2 nM FIXa) it was 101 s; in the assay with FVIII deficient plasma (7.5 μM, w/o FIXa), 114 s; in the assay with FVIII deficient plasma (12.5 μM, 2.2 nM FIXa), 104 s; in the assay on FVIII deficient plasma (12.5 μM, w/o FIXa), 117 s. Moreover, the average clotting time in the assay with FVIII deficient plasma (15 μM, 2.2 nM FIXa) was 106 s; with FVIII deficient plasma (15 μM, w/o FIXa) it was 122 s. The clotting time in the assay with FVIII deficient plasma (2.5 μM, 2.2 nM FIXa, duplicate 1) came out at 96.3 s; in the assay on FVIII deficient plasma (2.5 μM, 2.2 nM FIXa, duplicate 2), 95.2 s; in the assay on FVIII deficient plasma (2.5 μM, w/o FIXa, duplicate 1) it was 107.8 s; with FVIII deficient plasma (2.5 μM, w/o FIXa, duplicate 2), 107.4 s; with FVIII deficient plasma (7.5 μM, 2.2 nM FIXa, duplicate 1), 100.8 s; with FVIII deficient plasma (7.5 μM, 2.2 nM FIXa, duplicate 2) it was 100.6 s. The clotting time in the assay with FVIII deficient plasma (7.5 μM, w/o FIXa, duplicate 1) came out at 114.2 s; with FVIII deficient plasma (7.5 μM, w/o FIXa, duplicate 2) it was 113.9 s; in the assay on FVIII deficient plasma (12.5 μM, 2.2 nM FIXa, duplicate 1), 103.1 s; in the assay with FVIII deficient plasma (12.5 μM, 2.2 nM FIXa, duplicate 2), 104.5 s; in the assay with FVIII deficient plasma (12.5 μM, w/o FIXa, duplicate 1), 116 s; with FVIII deficient plasma (12.5 μM, w/o FIXa, duplicate 2) it was 117.6 s. The clotting time in the assay on FVIII deficient plasma (15 μM, 2.2 nM FIXa, duplicate 1) worked out at 106.1 s; in the assay with FVIII deficient plasma (15 μM, 2.2 nM FIXa, duplicate 2), 105.5 s; in the assay with FVIII deficient plasma (15 μM, w/o FIXa, duplicate 1), 122.5 s; in the assay on FVIII deficient plasma (15 μM, w/o FIXa, duplicate 2) it was 122 s.

B1: 198/A1: anti-FIX/FIXa monoclonal IgG, ECACC No. 99090924; scFv SEQ. ID. NOs. 87 and 88 (protein)
scFv: EVQLQESGGGLVKPGGSLKLSCAASGFIFSSYTMSWVRQTPEKRLEWVATISSGGSSTYYPDSVKGRFTISRDNAKNTLYLQMSSLKSEDTAMYHCTREGGGYYVNWYFDVWGAGTTLTVSSGGGGSGGRASGGGGSDIELTQSPASLAVSLGQRATISCRASESVDSYGKSFMHWYQQKPGQPPKLLIYRASNLESGIPARFSGSGSRTDFTLTINPVEADDVATYYCQQSNEDPLTFGAGTRLEIKR
modifications: scFv derived from IgG; Description of Artificial Sequence:scFv derived from hybridima cell line 198/A1
notes: anti-FIX/FIXa monoclonal IgG, ECACC No. 99090924; ID; NOs; 87 and 88
Turning to B1, the procoagulant activity entry in the assay on FVIII deficient plasma (one-stage clotting assay in the presence of FIXa) is recorded as “show procoagulant activity”. Further, in the assay with factor IXa, the “chromogenic FVIII-like activity (FXa generation) without human FIXa” value is “does not react with bovine FIXa and FX”.
